# Results taken from patent US7259293B2, “Expression of eukaryotic peptides in plant plastids” (priority 1998, dated 2007).
# Tests used:
# [1] = tested on: Wild type tobacco (nontransformed control plants); assay: Whole plant glyphosate spray tolerance, wild type; assay type: in vivo; settings: concentrations as low as 16 oz/Acre
# [2] = tested on: homoplasmic tobacco line 38773-6; assay: In vitro glyphosate tolerance, shoot regeneration from leaf explants, line 38773-6; assay type: cell-based; settings: tobacco plants expressing EPSPS in plastids (pMON38773)
# Description: A transplastomic tobacco line homoplasmic for the construct pMON38773 was tested in vitro to determine the highest level of glyphosate tolerance. Explant tissue was prepared from leaf pieces of nontransgenic wild type tobacco control, Havanna, plants and the homoplasmic tobacco line 38773-6 and cultured for regeneration of shoots on TSO medium (described above) supplemented with glyphosate levels of 50 μM, 75 μM, 100 μM, 150 μM and 200 μM. The number of explants producing shoots was determined at 3 weeks and 6 weeks after explant preparation and culturing on glyphosate containing medium.
# [3] = tested on: homoplasmic tobacco plants of the line 38773-6; assay: Whole plant glyphosate spray tolerance, line 38773-6; assay type: in vivo
# Description: Homoplasmic tobacco plants of the line 38773-6 are sprayed with glyphosate using a track sprayer at concentrations corresponding to 0 oz/acre, 16 oz/acre, 32 oz/acre and 64 oz/acre to test for whole plant tolerance. Plant height was measured before and after spraying with glyphosate. The vegetative injury data was collected two weeks after spraying, while the reproductive injury data was collected at plant maturity.
# Tolerance is characterized by the continued growth and greening of tissues sprayed with glyphosate. However, as the concentration of glyphosate applied increased, there was a corresponding increase in the level of vegetative injury.
# [4] = tested on: Nb2 cell line; assay: Nb2 cell proliferation bioactivity assay; assay type: cell-based, rat; settings: 48 hrs incubation, MTS absorbance
# Description: Bioactivity of the pH adjusted and centrifuged extract was tested using cells from an Nb2 cell line. These cells proliferate in the presence of growth hormone and other […] type compounds. The assay involves putting various concentrations of growth hormone-containing extract into a 96 well plate. Then a constant amount of cells are added to each well. The plate is incubated for 48 hrs and then a reagent called MTS is added. Metabolizing cells take up the MTS and convert it to a blue colored substance. The more cells there are the more blue color in the well. The blue color is measured using a spectrophotometer. The number of cells should be proportional to the concentration of growth hormone in the media. At some high concentration one expects that the cells will become saturated with growth hormone and that the dose response will level off. At very low hGH concentrations essentially no enhanced growth is seen.
# To test this hypothesis in vitro, a rat lymphoma cell line, Nb2, that proliferates in the presence of somatotropin (hGH) and other […] type compounds was employed. Proliferation of this cell line is proportional to the amount of somatotropin in the culture medium, until saturation is reached. The ion exchange column eluate from transplastomic Nt-4838 and Nt-38794 plants or identically treated wild-type plants was added to the Nb2 cell culture medium. As control, E. coli produced, refolded hGH was used.
# [5] = in vivo; cited from earlier work
molecule,measurement,setting,value
"O=C(O)CNCP(=O)(O)O [Glyphosate, N-phosphonomethylglycine]",susceptibility to glyphosate spray,[1],highly susceptible
same,glyphosate level tolerated (shoot regeneration),[2],at least 200 μM
same,"glyphosate concentration tolerated, whole plant spray","[3]; homoplasmic tobacco lines, initial results, vegetative tissue injury",16 oz/acre
same,"glyphosate level tolerated, whole plant spray",[3]; subsequent experiments with additional transformed lines,64 oz/Acre
same,"glyphosate level with a good level of tolerance, whole plant spray",[3]; transplastomic lines,32 oz/Acre
"alanine-hST: hGH with alanine N-terminus, from Nt4838 extracts, methionine removed by aminopeptidase",proliferation of the Nb2 cell line (bioactivity),[4],also bioactive
chloroplast derived hGH: human growth hormone expressed in tobacco plastids,proliferation of the Nb2 cell line (bioactivity),[4],biologically active
same,proliferation of the Nb2 cell line (bioactivity),[4]; listed as hGH expressed from a plant plastid,sigmoidal shape when graphed as absorbance versus hGH concentration
"recombinant somatotropin: recombinant somatotropin produced in E. coli, N-terminal methionine or phenylalanine (Moore et al. 1988)",pharmacokinetics,[5],equivalent pharmacokinetics
